Data: US20080026079A1 (priority 2006, published 2008)
Where “and” joins values, the source holds several entries; their conditions need not be identical. Equal entries are not always repeated. Entries after “also recorded” stand apart in the source; their conditions may differ.

Key:
[1] = test system: canine intestinal inflammation; experiment: Canine inflammatory bowel disease activity index (CIBDAI) around Adriamycin dosing; type: in vivo, dog; design: key to CIBDAI C. Vomiting: 0 = none; 1 = mild (1 episode/week); 2 = moderate (2-3 episodes/week); 3 = severe (>3 episodes/week); key to CIBDAI A. Attitude/activity / CIBDAI B. Appetite / CIBDAI E. Stool frequency: 0 = normal; 1 = slightly decreased; 2 = moderately decreased; 3 = severely decreased
Experimental: (§1) The criteria used for the scoring in the table is found at the bottom of the table. Dogs in the study were given a “palliative” Adriamycin dosage (30 mg/m2, IV every 14 days). Symptoms related to intestinal inflammation are expected in fewer than 10% of treated dogs.

[2] = test system: hepatic demethylation capacity; conditions: dog, in vivo
Experimental: A ^13C-aminopyrine demethylation blood test was performed in 16 dogs before and after undergoing chemotherapy with doxorubicin for malignant neoplasia. A baseline blood sample of 1 ml was taken, followed by intravenous injection of 2 mg/kg ^13C-aminopyrine and collection of another 1 ml blood sample at 45 minutes after ^13C-aminopyrine administration. Blood samples were immediately placed into vacutainer tubes containing 2 ml of 6M hydrochloric acid and the percent dose of the ^13C administered as ^13C-aminopyrine was determined based on fractional mass spectrometry. […] A p-value <0.05 was considered statistically significant.

[3] = test system: canine intestinal inflammation; experiment: Canine inflammatory bowel disease activity index (CIBDAI) around Adriamycin dosing; type: in vivo; design: key: 0 = normal; 1 = slightly soft faeces or faecal blood, mucus or both; 2 = very soft faeces; 3 = watery diarrhea; conditions: one line per dog
Experimental: as §1

fecal α-1PI = experiment: Fecal alpha(1)-proteinase inhibitor ELISA following Adriamycin; type: in vivo, dog;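 on m α-1PI - pd. 1: unit µg per g of feces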;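 on m α-1PI - pd. 2: unit µg per g of feces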
Experimental: Fecal alpha(1)-proteinase inhibitor (α-1PI) clearance is a reliable, noninvasive marker for protein-losing enteropathy in animals and canines. Furthermore, the canine gut is a good model for the human gut, so results of testing on dogs can be considered relevant to humans. In this example, a number of dogs were tested. Fecal samples were collected daily for 3 days following each Adriamycin administration. An ELISA was used to measure α-1PI concentrations in fecal extracts.
Fecal samples were available for analysis following both chemotherapy treatments from 13 dogs.

[4] = test system: dogs with malignant tumors; conditions: cited from earlier work
[5] = test system: canine intestinal inflammation; experiment: Canine inflammatory bowel disease activity index (CIBDAI) around Adriamycin dosing; type: in vivo; design: key: 0 = normal; 1 = slightly decreased; 2 = moderately decreased; 3 = severely decreased; conditions: one line per dog
Experimental: as §1

[6] = test system: irinotecan-induced diarrhea; conditions: irinotecan weekly 125 mg/m^2; strict adherence to high-dose loperamide; fell from 56; cited from earlier work
[7] = test system: chemotherapy-induced diarrhea; conditions: 41 5-FU-treated patients; standard-dose loperamide; cited from earlier work
[8] = test system: diarrhea following chemotherapy in dogs; conditions: dog, in vivo
Experimental: 32 dogs presented with diarrhea following the administration of a chemotherapy agent such as doxorubicin, cytoxan, vincristine, lomustine, and others for a minimum period of 48 hours. CASAD in 500 mg tables was given orally to the cancer-treated dogs four times a day (q.i.d.). Other pharmaceutical agents or medications, as shown below, were also administered to certain dogs according to Best Clinical Practices, using usual, customary dosing. To the extent permitted by scheduling, CASAD and the other medication were given concurrently.

[9] = test system: pregnant Sprague-Dawley rats; experiment: Dietary clay toxicity and trace metal bioavailability in pregnant rats; conditions: rat, in vivo
Experimental: In animal studies with calcium montmorillonite clay, no adverse effects from clay treatment, at levels up to 2.0% (w/w) in the diet, have been reported. In recent studies in rodents, calcium montmorillonite clay were evaluated for potential toxicity and trace metal bioavailability in pregnant Sprague-Dawley rats throughout the period of gestation following high level exposure in the diet (2.0% w/w). Clays were supplemented in the balanced diet of Sprague-Dawley rats during pregnancy at a level of 2.0% (w/w). Evaluations of toxicity were performed on gestation day 16 and included maternal body weights, maternal feed intakes, litter weights, in addition to embryonic resorptions. Liver and, kidneys, tibia, brain, uterus, pooled placental, and pooled embryonic mass were collected and weighed. Tissue were lyophilized and neutron activation analysis (NAA) was then performed. Elements considered by NAA included: Al, Br, Ca, Ce, Co, Cr, Cs, Cu, Dy, Eu, Fe, Hf, K, La, Lu, Mg, Mn, Na, Nd, Ni, Rb, S, Sb, Sc, Se, Sm, Sr, Ta, Th, Te, Th, Ti, Tl, U, V, Yb, Zn, and Zr. Inductively coupled plasma-mass spectroscopy further confined that Al was below detection limits (0.5 ppm) in the brain, indicating no significant bioavailability of this metal from clay interactions in the GI tract. […]

Cc1ncc([N+](=O)[O-])n1CCO [Flagyl, metronidazole]
time to resolution of diarrhea ([1]; Dog 2, diarrhea started Day 21 after Adria 2): with Flagyl, resolved in 2 days

COc1cccc2c1C(=O)c1c(O)c3c(c(O)c1C2=O)C[C@@](O)(C(=O)CO)C[C@@H]3O[C@H]1C[C@H](N)[C@H](O)[C@H](C)O1 [doxorubicin]
CIBDAI A. Attitude/activity ([1]; Post Adria 1, 30 mg/m2 IV every 14 days, one line per dog): A.0 (11×) and A.1 (2×) | CIBDAI B. Appetite ([1]; Post Adria 1, one line per dog): B.0 (11×) and B.2 (2×) | CIBDAI C. Vomiting ([1]; Post Adria 1, one line per dog): C.1 (1 = mild (1 episode/week)) (2×) and C.0 (9×) and C.2 (2 = moderate (2-3 episodes/week)) (2×) | CIBDAI E. Stool frequency ([1]; Post Adria 1, one line per dog): E.0 (11×) and E.2 (2 = moderately increased (4-5 times/day)) and E.1 (1 = slightly increased (2-3 times/day)) | CIBDAI A. Attitude/activity ([1]; Post Adria 2, one line per dog): A.0 (10×) and A.3 and A.2 and A.1 | CIBDAI B. Appetite ([1]; Post Adria 2, one line per dog): B.0 (9×) and B.2 (2×) and B.3 and B.1 | CIBDAI C. Vomiting ([1]; Post Adria 2, one line per dog): C.0 (11×) and C.1 (1 = mild (1 episode/week)) (2×) | CIBDAI E. Stool frequency ([1]; Post Adria 2, one line per dog): E.2 (2 = moderately increased (4-5 times/day)) (2×) and E.0 (11×) | CIBDAI A. Attitude/activity ([1]; Pre Adria 2, one line per dog): A.0 | CIBDAI B. Appetite ([1]; Pre Adria 2, one line per dog): B.0 (12×) and B.1 | CIBDAI C. Vomiting ([1]; Pre Adria 2, one line per dog): C.0 | CIBDAI E. Stool frequency ([1]; Pre Adria 2, one line per dog): E.0 | CIBDAI F. Weight loss ([1]; Pre Adria 2, one line per dog): F.0 | observations noted per dog after Adriamycin ([1]; notes under the dog's scores, listed as Adria): Day 21 - Lethargic for 1 week after; also recorded: Day 21 - Owner reported dumpty for 3 days post Adria #2; also recorded: Day 21 - Diarrhea started, treated; also recorded: Patient was euthanized 5 days after initial; also recorded: Day 7 - Diarrhea,; also recorded: Day 21 - Diarrhea for 3 days,; also recorded: Adria #2 delayed due to vomiting, diarrhea, | mean ±SD clearance at 45 minutes after 13C-aminopyrine administration [2]: 0.09562±0.0074 | CIBDAI D. Stool consistency ([3]; Post Adria 1): D.3 and D.1 and D.2 | CIBDAI D. Stool consistency ([3]; Post Adria 2): D.2 and D.3 | CIBDAI D. Stool consistency ([3]; Pre Adria 2): D.1 | fecal α-1PI concentrations, comparison of the two treatments (fecal α-1PI; 13 dogs): not significantly different | m α-1PI - pd. 1 (fecal α-1PI; one line per dog, fecal samples 3 days following first Adriamycin administration): 0 micro g/g of feces (5×) and 9.38 micro g/g of feces and 1.38 micro g/g of feces and 2.83 micro g/g of feces and 0.7 micro g/g of feces and 4.2 micro g/g of feces and 6.85 micro g/g of feces and 0.47 micro g/g of feces and 13.23 micro g/g of feces | m α-1PI - pd. 2 (fecal α-1PI; one line per dog, fecal samples 3 days following second Adriamycin administration): 21.29 micro g/g of feces and 0 micro g/g of feces (3×) and 3.76 micro g/g of feces and 1.34 micro g/g of feces and 1.7 micro g/g of feces and 0.85 micro g/g of feces and 0.53 micro g/g of feces and 14.26 micro g/g of feces and 4.57 micro g/g of feces and 1.83 micro g/g of feces and 1.3 micro g/g of feces | dogs that died as a direct result of doxorubicin-induced toxicosis ([4]; 185 dogs, 30 mg/m^2 iv once or twice at 21-day interval): 7 dogs | likelihood of toxicosis after second dose in dogs with signs after first dose ([4]; dog, in vivo): 17.2 times | CIBDAI D. Stool consistency ([5]; Post Adria 1): D.0 | CIBDAI D. Stool consistency ([5]; Post Adria 2): D.0 | CIBDAI D. Stool consistency ([5]; Pre Adria 2): D.0

CN(C)C(=O)C(CCN1CCC(O)(c2ccc(Cl)cc2)CC1)(c1ccccc1)c1ccccc1 [loperamide]
prevalence of grade ¾ diarrhea [6]: 9% | resolution of diarrhea by day three [7]: 15%

C[C@@H](O)[C@@H]1NC(=O)[C@H](CCCCN)NC(=O)[C@@H](Cc2c[nH]c3ccccc23)NC(=O)[C@H](Cc2ccccc2)NC(=O)[C@@H](NC(=O)[C@H](N)Cc2ccccc2)CSSC[C@@H](C(=O)N[C@H](CO)[C@@H](C)O)NC1=O [octreotide]
resolution of diarrhea by day three [7]: 90%

calcium aluminosilicate [CASAD]
1 = interaction 0 = noninteraction [8]: 0 | dogs with interaction [8]: 0 | negative interactions (anorexia, vomiting, nausea, lethargy, anaphylaxis) with additional drugs [8]: No negative interactions

calcium montmorillonite clay
Al in the brain (ICP-MS) [9]: < 0.5 ppm | brain Rb [9]: decreased brain Rb
